From PMC7167990, “Therapeutic Effects of Atranorin towards the Proliferation of Babesia and Theileria Parasites” (Pathogens, 2020)
“And” between values parts separate entries of the source, which are not always exact repeats. Equal entries are not always repeated. Where two headings read alike, the source gives them in different places.

What was measured:
NIH/3T3 cells = assay: Cytotoxicity assay (CCK-8 cell viability); assay type: cell-based, mouse; details: for EC50: Mus musculus, read-out: EC50 NIH/3T3
Method: (§1) Cultures of human foreskin fibroblast (HFF; HFF-1 ATCC® SCRC-1041™), Madin–Darby bovine kidney (MDBK; ECACC) and mouse embryonic fibroblast (NIH/3T3; ATCC® CRL-1658™) cells were retrieved from −80 °C stock and cultured continuously at 37 °C under atmosphere 5% CO2 in our laboratory. The NIH/3T3 and HFFs cells were maintained in Dulbecco Modified Eagle’s Medium (DMEM; Gibco, Grand Island, NY, USA), while MDBK cell line grown in Minimum Essential Medium Eagle (MEM; Gibco). Each medium was treated with 0.5% penicillin/streptomycin (Gibco), 10% inactivated fetal bovine serum and 2 mM glutamine. Every 72 to 96 h, the medium was replaced, and once 80% confluence was reached, the cell collection was performed by sub-culture protocol. To confirm the absence of mycoplasma contamination, 4,6-diamidino-2-phenylindole dihydrochloride stain (Sigma-Aldrich) was used.
(§2) The cell viability test was conducted in a 96-well plate as described elsewhere. Briefly, an aliquot of (100 µL) cells was implanted at a concentration of 5 × 10^4 cells/mL in DMEM or MEM with fetal bovine serum and incubated overnight under atmosphere 5% CO2 at 37 °C for attachment. Using two-fold dilutions, aliquots (10 µL) of drugs were added in triplicate per well to attain final concentrations of 50 to 1000 µM and further incubated for 24 h. The positive control wells containing cells mixed with the medium in 0.4% DMSO, whereas the negative control wells containing culture medium only. After a 24-h incubation, Cell Counting Kits-8 (CCK-8, 10 µL) was added to each well and then plate incubation was conducted for an additional 3 h and a microplate reader was used to assess the absorbance at 450 nm.

B. microti = details: for peak parasitemia level: peak on day 10; for peak parasitemia level / first day on which parasitemia was not detected by microscopy: B. microti-infected BALB/c mice; for first day on which parasitemia was not detected by microscopy: DA 25, AV 20, ATR 25, ATR 12.5+DA 12.5, ATR 12.5+AV 10 mg/kg BW
B. divergens = assay: In vitro growth inhibition, Babesia fluorescent (SYBR Green I) assay; assay type: cell-based; details: 96 h, 4 days culture, mean of triplicate experiments
Method: (§3) Babesia parasite was incubated and maintained at 37 °C in a humidifying chamber under 5% CO2, 5% O2, and 90% N2 atmosphere using a microaerophilic stationary-phase culture for conducting the in vitro experiment. Briefly, Germany strain Babesia divergens was cultured in cattle RBCs in Roswell Park Memorial Institute 1640 (RPMI 1640; Sigma-Aldrich, St. Louis, MO, USA) medium replenished with 40% cattle serum, while culture medium 199 (M199; Sigma-Aldrich) was utilized for the Argentina strain B. bigemina and Texas strain B. bovis, and T. equi USDA strain cultured in cattle RBCs supplemented with 40% cattle serum and horse RBCs maintained in hypoxanthine (MP Biomedicals, Santa Ana, CA, USA; final concentration 13.6 μg/mL) and 40% horse serum, respectively. GIT medium complemented with 40% horse serum was used as a growth medium for the USDA strain of B. caballi cultured in horse RBCs. To ensure free-bacterial contamination, amphotericin B (0.15 μg/mL) (Sigma-Aldrich), streptomycin (60 U/mL) and penicillin G (60 U/mL) were added to all medium.
(§4) The Babesia fluorescent assay was carried out on the in vitro culture as previously reported elsewhere to assess the growth of the inhibitory effectiveness of ATR and the combination treatment with DA, CF, and AV. Briefly, in three separate trials, using two-fold dilution, different concentrations of ATR, DA, CF, and AV were prepared in the culture medium and added in 96-well plates in triplicate with 1% parasitemia for T. equi, B. divergens and B. caballi at 5% HCT, while for B. bigemina and B. bovis using 2.5% HCT. The drug combined efficacy was conducted at the same time with the single-treatment assay in accordance with the Chou–Talalay method. […] On day four of culture, an aliquot (100 µL) of lysis buffer mixed with 0.2μL/mL SG1 was added per well; subsequently, it was covered with aluminum foil to prevent exposure to light. After incubation for 6-h at 37 °C, fluorescence readings were acquired on a spectrofluorimeter (Fluoroskan Ascent, Thermo Fisher Scientific, Oceanside, CA, USA) with a 485 nm excitation wavelength and a 518 nm emission wavelength.
(§5) The IC50 values of ATR, DA, CF, and AV were established from the in vitro growth inhibition by nonlinear regression curve fit on a GraphPad Prism (GraphPad Software Inc., San Diego, CA, USA). […] The significant variations (p < 0.05) among group mean values on parasitemia and one-way ANOVA Tukey’s test in GraphPad Prism version 5.0 was used to analyze hematology profiles in mice infected with B. microti.

B. caballi = assay: as above; assay type: cell-based; details: Babesia caballi, 96 h, 4 days culture, mean of triplicate experiments
Method: as §3, §4, §5

T. equi = assay: as above; assay type: cell-based; details: 96 h, 4 days culture, mean of triplicate experiments
Method: as §3, §4, §5

HFFs = assay: Cytotoxicity assay (CCK-8 cell viability); assay type: cell-based, human; details: for EC50: Homo sapiens, HFFs, 24 h, CCK-8
Method: as §1, §2

[1] = Hematology parameters (HGB, HCT, RBCs) in B. microti-infected treated mice; assay type: in vivo, BALB/c mice; parameters: HGB Mean: unit not given beside the values; RBCs Mean: unit not given here; details: DA 25, AV 20, ATR 25, ATR 12.5+DA 12.5, ATR 12.5+AV 10 mg/kg BW, days 4-8 p.i.
MDBK cells = assay: Cytotoxicity assay (CCK-8 cell viability); assay type: cell-based, bovine; details: for EC50: Bos taurus, MDBK cells, 24 h, CCK-8
Method: as §1, §2

[2] = EC50 NIH/3T3 / IC50 B. bigemina
[3] = EC50 NIH/3T3 / IC50 B. divergens
[4] = ATR 25 mg/kg i.p., days 4-8 p.i.

COC(=O)c1c(C)cc(OC(=O)c2c(C)cc(O)c(C=O)c2O)c(C)c1O [ATR, Atranorin]
Selective Index NIH/3T3 (NIH/3T3 cells; [2]): 9.9 | Selective Index NIH/3T3 (NIH/3T3 cells; EC50 NIH/3T3 / IC50 B. bovis): 6.5 | Selective Index NIH/3T3 (NIH/3T3 cells; EC50 NIH/3T3 / IC50 B. caballi): 13.7 | Selective Index NIH/3T3 (NIH/3T3 cells; [3]): 14.0 | Selective Index NIH/3T3 (NIH/3T3 cells; EC50 NIH/3T3 / IC50 T. equi): 9 | EC50 (NIH/3T3 cells; NIH3T3, 24 h): 638 ± 12 µM | inhibition of B. microti multiplication in mice (B. microti; [4]): 68.17% | peak parasitemia level (B. microti; [4]): 19.92% | first day on which parasitemia was not detected by microscopy (B. microti; days 4-8 p.i.): 26 day p.i. | toxic signs in mice due to treatment (B. microti; mouse, in vivo): no obvious toxic signs or promoted anemia | IC50 (B. divergens): 45.2 ± 5.9 µM | IC50 (B. caballi): 46.6 ± 2.5 µM | IC50 (T. equi): 71.3 ± 2.7 µM | Selective Index HFFs (HFFs; EC50 HFFs / IC50 B. bigemina): 11.6 | Selective Index HFFs (HFFs; EC50 HFFs / IC50 B. bovis): 7.6 | Selective Index HFFs (HFFs; EC50 HFFs / IC50 B. caballi): 16.1 | Selective Index HFFs (HFFs; EC50 HFFs / IC50 B. divergens): 16.6 | Selective Index HFFs (HFFs; EC50 HFFs / IC50 T. equi): 10.6 | EC50 (HFFs): 750 ± 15 µM | HCT Mean ([1]; day 0): 46.575% | HGB Mean ([1]; day 0): 14.8 | RBCs Mean ([1]; day 0): 942.625 | HCT Mean ([1]; day 4): 44.4% | HGB Mean ([1]; day 4): 13.64 | RBCs Mean ([1]; day 4): 928 | HCT Mean ([1]; day 8): 38% | HGB Mean ([1]; day 8): 10 | RBCs Mean ([1]; day 8): 610 | HCT Mean ([1]; day 12): 28.925% | HGB Mean ([1]; day 12): 10.05 | RBCs Mean ([1]; day 12): 557 | HCT Mean ([1]; day 16): 36.65% | HGB Mean ([1]; day 16): 11.425 | RBCs Mean ([1]; day 16): 637.75 | HCT Mean ([1]; day 20): 39.5% | HGB Mean ([1]; day 20): 11.95 | RBCs Mean ([1]; day 20): 679.75 | HCT Mean ([1]; day 24): 40.2% | HGB Mean ([1]; day 24): 12.725 | RBCs Mean ([1]; day 24): 830 | HCT Mean ([1]; day 28): 43.2% | HGB Mean ([1]; day 28): 13.2 | RBCs Mean ([1]; day 28): 898 | HCT Mean ([1]; day 32): 45.2% | HGB Mean ([1]; day 32): 14.8 | RBCs Mean ([1]; day 32): 942.625 | HCT Mean ([1]; day 36): 47.2% | HGB Mean ([1]; day 36): 14.99 | RBCs Mean ([1]; day 36): 982.625 | EC50 (MDBK cells): 775 ± 16 µM | Selective Index MDBK (MDBK cells; EC50 MDBK / IC50 B. bigemina): 12.0 | Selective Index MDBK (MDBK cells; EC50 MDBK / IC50 B. bovis): 7.9 | Selective Index MDBK (MDBK cells; EC50 MDBK / IC50 B. caballi): 16.6 | Selective Index MDBK (MDBK cells; EC50 MDBK / IC50 B. divergens): 17.1 | Selective Index MDBK (MDBK cells; EC50 MDBK / IC50 T. equi): 10.6 and 10.9

O=C1C(O)=C([C@H]2CC[C@H](c3ccc(Cl)cc3)CC2)C(=O)c2ccccc21 [AV, atovaquone]
Selective Index NIH/3T3 (NIH/3T3 cells; [2]): ˃142.7 | Selective Index NIH/3T3 (NIH/3T3 cells; EC50 NIH/3T3 / IC50 B. bovis): ˃2564 | Selective Index NIH/3T3 (NIH/3T3 cells; EC50 NIH/3T3 / IC50 B. caballi): ˃980.4 | Selective Index NIH/3T3 (NIH/3T3 cells; [3]): ˃2631 | Selective Index NIH/3T3 (NIH/3T3 cells; EC50 NIH/3T3 / IC50 T. equi): ˃1052 | EC50 (NIH/3T3 cells; NIH3T3, NIH/3T3 cells, 24 h, CCK-8): > 100 µM | peak parasitemia level (B. microti; AV at 20 mg/kg, days 4-8 p.i.): 10.99% | first day on which parasitemia was not detected by microscopy (B. microti; days 4-8 p.i.): 18 day p.i. | IC50 (B. divergens): 0.04 µM | IC50 (B. caballi): 0.1 ± 0.01 µM | IC50 (T. equi): 0.09 ± 0.06 µM | Selective Index HFFs (HFFs; EC50 HFFs / IC50 B. bigemina): ˃142.7 | Selective Index HFFs (HFFs; EC50 HFFs / IC50 B. bovis): ˃2564 | Selective Index HFFs (HFFs; EC50 HFFs / IC50 B. caballi): ˃980.4 | Selective Index HFFs (HFFs; EC50 HFFs / IC50 B. divergens): ˃2631 | Selective Index HFFs (HFFs; EC50 HFFs / IC50 T. equi): ˃1052 | EC50 (HFFs): > 100 µM | HCT Mean ([1]; day 0): 47.48% | HGB Mean ([1]; day 0): 14.44 | RBCs Mean ([1]; day 0): 1060.62 | HCT Mean ([1]; day 4): 45% | HGB Mean ([1]; day 4): 13.64 | RBCs Mean ([1]; day 4): 984.75 | HCT Mean ([1]; day 8): 44% | HGB Mean ([1]; day 8): 14.34 | RBCs Mean ([1]; day 8): 878 | HCT Mean ([1]; day 12): 40% | HGB Mean ([1]; day 12): 12.6 | RBCs Mean ([1]; day 12): 850 | HCT Mean ([1]; day 16): 43% | HGB Mean ([1]; day 16): 13.96 | RBCs Mean ([1]; day 16): 830.25 | HCT Mean ([1]; day 20): 45% | HGB Mean ([1]; day 20): 14.92 | RBCs Mean ([1]; day 20): 844 | HCT Mean ([1]; day 24): 46% | HGB Mean ([1]; day 24): 15.4 | RBCs Mean ([1]; day 24): 850 | HCT Mean ([1]; day 28): 48% | HGB Mean ([1]; day 28): 15.64 | RBCs Mean ([1]; day 28): 984.75 | HCT Mean ([1]; day 32): 50% | HGB Mean ([1]; day 32): 16 | RBCs Mean ([1]; day 32): 1000.62 | HCT Mean ([1]; day 36): 51% | HGB Mean ([1]; day 36): 16.44 | RBCs Mean ([1]; day 36): 1060.62 | EC50 (MDBK cells): > 100 µM | Selective Index MDBK (MDBK cells; EC50 MDBK / IC50 B. bigemina): ˃142.7 | Selective Index MDBK (MDBK cells; EC50 MDBK / IC50 B. bovis): ˃2564 | Selective Index MDBK (MDBK cells; EC50 MDBK / IC50 B. caballi): ˃980.4 | Selective Index MDBK (MDBK cells; EC50 MDBK / IC50 B. divergens): ˃2631 | Selective Index MDBK (MDBK cells; EC50 MDBK / IC50 T. equi): ˃1052
